From patent US10611750B2, “Tetrahydroquinoline compositions as bet bromodomain inhibitors” (FORMA Therapeutics, Inc., priority 2013, dated 2020)
Read-outs that look alike come from different tables or passages of the source.

Columns and labels:
[1] = molecular target: T1, BRD4 Bromodomain 1 (BRD4 BD1) (Homo sapiens, UniProt O60885); assay: AlphaScreen binding assay, BRD4 BD1; conditions: His-tagged BRD4 BD1 50 nM, biotinylated H4 (1-21) K5/8/12/16 tetra-acetylated peptide 50 nM, compounds listed under IC50 range headings
T1 construct: 44-168 and BRD4 BD2
In short: (§1)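 Compound dilution series were mixed with His-tagged BRD4 bromodomain and biotinylated tetra-acetylated H4 (1-21) peptide at pH 7.3 (BD1 and peptide at 50 nM, BD2 and peptide at 100 nM). Donor and acceptor beads were then added, and plates were equilibrated at least 1 h before reading. IC50 values were fitted with a four-parameter logistic model.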

[2] = tested on: acute myelocytic leukemia (AML) cell line MV4-11; assay: Oncology cell growth assay (3-day proliferation, CellTiter-Glo); assay type: cell-based; conditions: Homo sapiens, MV4-11 cells, 3000 cells/well, compounds listed under IC50 range headings, read-out: MV411 IC50 (gIC50, inhibition of proliferation)
In short: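 Compounds were serially diluted 3-fold in DMSO, giving final well concentrations from 10 down to 0.0045 μM. MV4-11 cells were then seeded at 3000 cells/well in RPMI 1640 with 10% FBS and incubated 72 hours. CellTiter-Glo signal was measured and gIC50 obtained by four-parameter logistic regression.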

[3] = molecular target: T2, BRD4 Bromodomain 2 (BRD4 BD2) (Homo sapiens, UniProt O60885); assay: AlphaScreen binding assay, BRD4 BD2; conditions: His-tagged BRD4 BD2 100 nM, biotinylated H4 (1-21) K5/8/12/16 tetra-acetylated peptide 100 nM, compounds listed under IC50 range headings
T2 construct: 333-460 were cloned, expressed, and purified to homogeneity
In short: as §1

C[C@H]1CCc2c(ccc(-c3cn(C)nn3)c2OC2CCC2)N1C(=O)C1CC1 [I-53, (S)-(5-cyclobutoxy-2-methyl-6-(1-methyl-1H-1,2,3-triazol-4-yl)-3,4-dihydroquinolin-1 (2H)-yl)(cyclopropyl)methanone]
IC50 [1]: 100 to 1000 nM
IC50 ([2]; MV4-11, 72 h): < 500 nM
IC50 [3]: < 50 nM

CC(=O)N1c2ccc(-c3cnn(C4CC4)c3)c(OC3CNC3)c2CC[C@@H]1C [I-60, (S)-1-(5-(azetidin-3-yloxy)-6-(1-cyclopropyl-1H-pyrazol-4-yl)-2-methyl-3,4-dihydroquinolin-1(2H)-yl)ethanone]
IC50 [1]: ≥ 10000 nM
IC50 ([2]; MV4-11, 72 h): > 1000 nM
IC50 [3]: ≥ 500 nM

COC(=O)N1c2ccc(-c3cnn(C4CS(=O)(=O)C4)c3)c(OC3CCC3)c2CC[C@@H]1C [I-61, Methyl (S)-5-cyclobutoxy-6-(1-(1,1-dioxidothietan-3-yl)-1H-pyrazol-4-yl)-2-methyl-3,4-dihydroquinoline-1(2H)-carboxylate]
IC50 [1]: 100 to 1000 nM
IC50 ([2]; MV4-11, 72 h): < 500 nM
IC50 [3]: 50 to 500 nM

COC(=O)N1c2ccc(-c3cnn(C4CCCS(=O)(=O)C4)c3)c(OC3CCC3)c2CC[C@@H]1C (stereo partly drawn) [I-62, Methyl (2S)-5-cyclobutoxy-6-(1-(1,1-dioxidotetrahydro-2H-thiopyran-3-yl)-1H-pyrazol-4-yl)-2-methyl-3,4-dihydroquinoline-1(2H)-carboxylate]
IC50 [1]: 100 to 1000 nM
IC50 ([2]; MV4-11, 72 h): < 500 nM
IC50 [3]: < 50 nM

CC(=O)N1c2ccc(-c3cnn(C4CC4)c3)c(OCC(C)(C)F)c2CC[C@@H]1C [I-67, (S)-1-(6-(1-cyclopropyl-1H-pyrazol-4-yl)-5-(2-fluoro-2-methylpropoxy)-2-methyl-3,4-dihydroquinolin-1 (2H)-yl)ethanone]
IC50 [1]: 100 to 1000 nM
IC50 ([2]; MV4-11, 72 h): < 500 nM
IC50 [3]: < 50 nM

COC(=O)N1c2ccc(-c3cnn(C4CCOCC4)c3)c(OC3CCC3)c2CC[C@@H]1C [I-68, (S)-methyl 5-cyclobutoxy-2-methyl-6-(1-(tetrahydro-2H-pyran-4-yl)-1H-pyrazol-4-yl)-3,4-dihydroquinoline-1(2H)-carboxylate]
IC50 [1]: 100 to 1000 nM
IC50 ([2]; MV4-11, 72 h): < 500 nM
IC50 [3]: < 50 nM

CC(=O)N1c2ccc(-c3cnn(C4CC4)c3)c(Oc3ncc4ccccc4n3)c2CC[C@@H]1C [I-77, (S)-1-(6-(1-cyclopropyl-1H-pyrazol-4-yl)-2-methyl-5-(quinazolin-2-yloxy)-3,4-dihydroquinolin-1(2H)-yl)ethanone]
IC50 [1]: 100 to 1000 nM
IC50 ([2]; MV4-11, 72 h): < 500 nM
IC50 [3]: < 50 nM

CC(=O)N1c2ccc(-c3cnn(C4CC4)c3)c(Oc3nc4ccccc4o3)c2CC[C@@H]1C [I-78, (S)-1-(5-(benzo[d]oxazol-2-yloxy)-6-(1-cyclopropyl-1H-pyrazol-4-yl)-2-methyl-3,4-dihydroquinolin-1(2H)-yl)ethanone]
IC50 [1]: 100 to 1000 nM
IC50 ([2]; MV4-11, 72 h): < 500 nM
IC50 [3]: 50 to 500 nM

CC(=O)N1c2ccc(-c3cnn(CCO)c3)c(Oc3ncccn3)c2CC[C@@H]1C [I-80, (S)-1-(6-(1-(2-hydroxyethyl)-1H-pyrazol-4-yl)-2-methyl-5-(pyrimidin-2-yloxy)-3,4-dihydroquinolin-1 (2H)-yl)ethanone]
IC50 [1]: 100 to 1000 nM
IC50 ([2]; MV4-11, 72 h): < 500 nM
IC50 [3]: < 50 nM

CC(=O)N1c2ccc(-c3cnn(C4CC4)c3)c(Oc3ncccc3C(N)=O)c2CC[C@@H]1C [I-81, (S)-2-(1-acetyl-6-(1-cyclopropyl-1H-pyrazol-4-yl)-2-methyl-1,2,3,4-tetrahydroquinolin-5-yloxy)nicotinamide]
IC50 [1]: 100 to 1000 nM
IC50 ([2]; MV4-11, 72 h): < 500 nM
IC50 [3]: 50 to 500 nM

CC(=O)N1c2ccc(-c3cnn(C4CC4)c3)c(Oc3ncc4cn[nH]c4n3)c2CC[C@@H]1C [I-82, (S)-1-(5-(1H-pyrazolo[3,4-d]pyrimidin-6-yloxy)-6-(1-cyclopropyl-1H-pyrazol-4-yl)-2-methyl-3,4-dihydroquinolin-1(2H)-yl)ethanone]
IC50 [1]: 1000 to 10000 nM
IC50 ([2]; MV4-11, 72 h): 500 to 1000 nM
IC50 [3]: 50 to 500 nM

CC(=O)N1c2ccc(-c3cnn(C4CC4)c3)c(Oc3nccs3)c2CC[C@@H]1C [I-83, (S)-1-(6-(1-cyclopropyl-1H-pyrazol-4-yl)-2-methyl-5-(thiazol-2-yloxy)-3,4-dihydroquinolin-1(2H)-yl)ethanone]
IC50 [1]: 1000 to 10000 nM
IC50 ([2]; MV4-11, 72 h): < 500 nM
IC50 [3]: < 50 nM

CC(=O)N1c2ccc(-c3cnn(C4CC4)c3)c(Oc3ncccc3C#N)c2CC[C@@H]1C [I-84, (S)-2-(1-acetyl-6-(1-cyclopropyl-1H-pyrazol-4-yl)-2-methyl-1,2,3,4-tetrahydroquinolin-5-yloxy)nicotinonitrile]
IC50 [1]: 100 to 1000 nM
IC50 ([2]; MV4-11, 72 h): < 500 nM
IC50 [3]: < 50 nM

CC(=O)N1c2ccc(-c3cnn(C4CC4)c3)c(Oc3ncccc3C(F)(F)F)c2CC[C@@H]1C [I-86, (S)-1-(6-(1-cyclopropyl-1H-pyrazol-4-yl)-2-methyl-5-(3-(trifluoromethyl)pyridin-2-yloxy)-3,4-dihydroquinolin-1 (2H)-yl)ethanone]
IC50 [1]: 100 to 1000 nM
IC50 ([2]; MV4-11, 72 h): < 500 nM
IC50 [3]: < 50 nM

CC(=O)N1c2ccc(-c3cnn(C4CC4)c3)c(Oc3cnccn3)c2CC[C@@H]1C [I-88, (S)-1-(6-(1-cyclopropyl-1H-pyrazol-4-yl)-2-methyl-5-(pyrazin-2-yloxy)-3,4-dihydroquinolin-1(2H)-yl)ethanone]
IC50 [1]: 100 to 1000 nM
IC50 ([2]; MV4-11, 72 h): < 500 nM
IC50 [3]: < 50 nM

CC(=O)N1c2ccc(-c3cnn(C4CC4)c3)c(Oc3ccccn3)c2CC[C@@H]1C [I-89, (S)-1-(6-(1-cyclopropyl-1H-pyrazol-4-yl)-2-methyl-5-(pyridin-2-yloxy)-3,4-dihydroquinolin-1(2H)-yl)ethanone]
IC50 [1]: 100 to 1000 nM
IC50 ([2]; MV4-11, 72 h): < 500 nM
IC50 [3]: 50 to 500 nM

CC(=O)N1c2ccc(-c3cnn(C4CC4)c3)c(Oc3ccc(C#N)nn3)c2CC[C@@H]1C [I-91, (S)-6-(1-acetyl-6-(1-cyclopropyl-1H-pyrazol-4-yl)-2-methyl-1,2,3,4-tetrahydroquinolin-5-yloxy)pyridazine-3-carbonitrile]
IC50 [1]: 100 to 1000 nM
IC50 ([2]; MV4-11, 72 h): < 500 nM
IC50 [3]: 50 to 500 nM

CC(=O)N1c2ccc(-c3cnn(C4CC4)c3)c(Oc3ncc(C)cn3)c2CC[C@@H]1C [I-92, (S)-1-(6-(1-cyclopropyl-1H-pyrazol-4-yl)-2-methyl-5-(5-methylpyrimidin-2-yloxy)-3,4-dihydroquinolin-1 (2H)-yl)ethanone]
IC50 [1]: 100 to 1000 nM
IC50 ([2]; MV4-11, 72 h): < 500 nM
IC50 [3]: < 50 nM

CC(=O)N1c2ccc(-c3cnn(C4CC4)c3)c(Oc3ccnc(C(F)(F)F)n3)c2CC[C@@H]1C [I-93, (S)-1-(6-(1-cyclopropyl-1H-pyrazol-4-yl)-2-methyl-5-(2-(trifluoromethyl)pyrimidin-4-yloxy)-3,4-dihydroquinolin-1(2H)-yl)ethanone]
IC50 [1]: 100 to 1000 nM
IC50 ([2]; MV4-11, 72 h): < 500 nM
IC50 [3]: 50 to 500 nM

C[C@H]1CCc2c(ccc(-c3cnn(C4CCNCC4)c3)c2OC2CCC2)N1C(=O)C1CC1 [I-99, (2S)-5-cyclobutoxy-1-cyclopropanecarbonyl-2-methyl-6-[1-(piperidin-4-yl)-1H-pyrazol-4-yl]-1,2,3,4-tetrahydroquinoline]
IC50 [1]: 100 to 1000 nM
IC50 ([2]; MV4-11, 72 h): < 500 nM
IC50 [3]: < 50 nM

CCCOc1c(-c2cnn(C3CCNCC3)c2)ccc2c1CC[C@H](C)N2C(=O)C1CC1 [I-100, (S)-cyclopropyl(2-methyl-6-(1-(piperidin-4-yl)-1H-pyrazol-4-yl)-5-propoxy-3,4-dihydroquinolin-1(2H)-yl)methanone]
IC50 [1]: 100 to 1000 nM
IC50 ([2]; MV4-11, 72 h): < 500 nM
IC50 [3]: < 50 nM

C[C@H]1CCc2c(ccc(-c3cnn(C4CNC4)c3)c2OC2CCC2)N1C(=O)C1CC1 [I-101, (S)-(6-(1-(azetidin-3-yl)-1H-pyrazol-4-yl)-5-cyclobutoxy-2-methyl-3,4-dihydroquinolin-1(2H)-yl)(cyclopropyl)methanone]
IC50 [1]: 100 to 1000 nM
IC50 ([2]; MV4-11, 72 h): < 500 nM
IC50 [3]: < 50 nM

CCCOc1c(-c2cnn(C3CNC3)c2)ccc2c1CC[C@H](C)N2C(=O)C1CC1 [I-102, (S)-(6-(1-(azetidin-3-yl)-1H-pyrazol-4-yl)-2-methyl-5-propoxy-3,4-dihydroquinolin-1(2H)-yl)(cyclopropyl)methanone]
IC50 [1]: 100 to 1000 nM
IC50 ([2]; MV4-11, 72 h): < 500 nM
IC50 [3]: < 50 nM

CCCOc1c(-c2cnn(C3CCNCC3)c2)ccc2c1CC[C@H](C)N2C(C)=O [I-104, (S)-1-(2-methyl-6-(1-(piperidin-4-yl)-1H-pyrazol-4-yl)-5-propoxy-3,4-dihydroquinolin-1 (2H)-yl)ethanone]
IC50 [1]: < 100 nM
IC50 ([2]; MV4-11, 72 h): < 500 nM
IC50 [3]: < 50 nM

CCCOc1c(-c2cnn(C3CCNCC3)c2)ccc2c1CC[C@H](C)N2C(=O)OC [I-107, (S)-methyl 2-methyl-6-(1-(piperidin-4-yl)-1H-pyrazol-4-yl)-5-propoxy-3,4-dihydroquinoline-1(2H)-carboxylate]
IC50 [1]: 100 to 1000 nM
IC50 ([2]; 72 hours): < 500 nM
IC50 [3]: 50 to 500 nM

COC(=O)N1c2ccc(-c3cnn(C4CCNC4)c3)c(OC3CCC3)c2CC[C@@H]1C (stereo partly drawn) [I-108, (2S)-methyl 5-cyclobutoxy-2-methyl-6-(1-(pyrrolidin-3-yl)-1H-pyrazol-4-yl)-3,4-dihydroquinoline-1(2H)-carboxylate]
IC50 [1]: 100 to 1000 nM
IC50 ([2]; MV4-11, 72 h): < 500 nM
IC50 [3]: < 50 nM
